Results: ChEMBL document CHEMBL1131854, “Design, synthesis and antimuscarinic activity of some imidazolium derivatives” (Bioorg Med Chem Lett, 1999)

Legend:
[1] = biological target: Muscarinic acetylcholine receptors; M2 & M3 (Homo sapiens) (UniProt P20309+P08172); assay: Selectivity ratio between Kb values of M2-receptor (atria) and M3-receptor (ileum); type: tissue-based; details: Cavia porcellus
[2] = biological target: Muscarinic acetylcholine receptor M3 (Cavia porcellus) (UniProt Q8VH26); assay: Antimuscarinic activity against muscarinic acetylcholine M3-receptor in guinea pig ileum; type: tissue-based
Sequence of Muscarinic acetylcholine receptor M3 (Cavia porcellus) (Q8VH26 1-587): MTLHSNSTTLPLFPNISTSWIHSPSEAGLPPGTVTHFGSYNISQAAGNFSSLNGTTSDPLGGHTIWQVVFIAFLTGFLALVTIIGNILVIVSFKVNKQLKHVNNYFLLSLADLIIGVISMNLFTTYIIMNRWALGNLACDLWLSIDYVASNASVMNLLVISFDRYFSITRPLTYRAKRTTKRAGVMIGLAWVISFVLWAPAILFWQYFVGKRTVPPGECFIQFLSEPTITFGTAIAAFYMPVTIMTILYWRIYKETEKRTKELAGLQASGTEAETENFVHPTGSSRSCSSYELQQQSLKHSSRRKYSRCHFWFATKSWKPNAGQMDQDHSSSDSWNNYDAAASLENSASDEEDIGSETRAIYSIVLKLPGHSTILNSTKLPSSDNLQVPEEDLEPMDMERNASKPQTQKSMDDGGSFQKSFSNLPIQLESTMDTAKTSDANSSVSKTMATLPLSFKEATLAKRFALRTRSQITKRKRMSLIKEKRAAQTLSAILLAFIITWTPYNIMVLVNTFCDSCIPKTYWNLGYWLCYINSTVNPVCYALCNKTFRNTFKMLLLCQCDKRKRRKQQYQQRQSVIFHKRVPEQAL

Ratio [1] | Kb [2] | Compound
5.28 | 0.858 nM | Cc1n(CCC(C(N)=O)(c2ccccc2)c2ccccc2)cc[n+]1Cc1ccc([N+](=O)[O-])cc1
1.3 | 7.11 nM | CC[n+]1ccn(CCC(C(N)=O)(c2ccccc2)c2ccccc2)c1C
13.5 | 4.96 nM | Cc1n(CCC(C(N)=O)(c2ccccc2)c2ccccc2)cc[n+]1Cc1ccccc1
4.36 | 5.62 nM | Cc1n(CCC(C(N)=O)(c2ccccc2)c2ccccc2)cc[n+]1Cc1cccc(Cl)c1
5.83 | 3.12 nM | CCCC[n+]1ccn(CCC(C(N)=O)(c2ccccc2)c2ccccc2)c1C
2.45 | – | CC(C)(C)c1nccn1CCC(C(N)=O)(c1ccccc1)c1ccccc1
22.1 | 0.117 nM | Cc1n(CCC(C(N)=O)(c2ccccc2)c2ccccc2)cc[n+]1Cc1ccc(Br)cc1
3.02 | 4.07 nM | CCC[n+]1ccn(CCC(C(N)=O)(c2ccccc2)c2ccccc2)c1C
5.67 | 11.8 nM | Cc1n(CCC(C(N)=O)(c2ccccc2)c2ccccc2)cc[n+]1Cc1ccccc1Cl
26.2 | 0.756 nM | Cc1n(CCCCC(C(N)=O)(c2ccccc2)c2ccccc2)cc[n+]1Cc1ccccc1
9.32 | 0.647 nM | Cc1n(CCC(C(N)=O)(c2ccccc2)c2ccccc2)cc[n+]1Cc1ccc(Cl)cc1
24.8 | 1.24 nM | Cc1n(CCC(C(N)=O)(c2ccccc2)c2ccccc2)cc[n+]1Cc1ccc(-c2ccccc2)cc1
9.94 | 0.639 nM | Cc1n(CCCC(C(N)=O)(c2ccccc2)c2ccccc2)cc[n+]1Cc1ccccc1
4.11 | 1.14 nM | CCc1n(CCC(C(N)=O)(c2ccccc2)c2ccccc2)cc[n+]1C
17.6 | – | Cc1nccn1CCCC(C(N)=O)(c1ccccc1)c1ccccc1
4.6 | 2.52 nM | Cc1cccc(C[n+]2ccn(CCC(C(N)=O)(c3ccccc3)c3ccccc3)c2C)c1
3.39 | – | Cc1nccn1CCCCC(C(N)=O)(c1ccccc1)c1ccccc1
1.74 | 12.5 nM | CCCc1n(CCC(C(N)=O)(c2ccccc2)c2ccccc2)cc[n+]1C
2.24 | 21.1 nM | Cc1ccccc1C[n+]1ccn(CCC(C(N)=O)(c2ccccc2)c2ccccc2)c1C
3.3 | – | CCc1nccn1CCC(C(N)=O)(c1ccccc1)c1ccccc1
1.68 | 3.78 nM | Cc1n(CCC(C(N)=O)(c2ccccc2)c2ccccc2)cc[n+]1C
13 | – | Cc1nccn1CCC(C(N)=O)(c1ccccc1)c1ccccc1
1.44 | – | CCCc1nccn1CCC(C(N)=O)(c1ccccc1)c1ccccc1
7.15 | 1.02 nM | Cc1ccc(C[n+]2ccn(CCC(C(N)=O)(c3ccccc3)c3ccccc3)c2C)cc1
13.5 | – | NC(=O)C(CCn1ccnc1)(c1ccccc1)c1ccccc1
